Results: patent publication US6458811B1, “Benzothiophenes formulations containing same and methods” (Eli Lilly and Company, priority 1996, dated 2002)
Counter-ions that a name gives are not always drawn.

How the values were obtained:
[1] = Particle size distribution by laser light diffraction (Horiba LA900); type: physicochemical; settings: hydrochloride
Method: In preparing the particulate compound of the invention a compound of formula I, in its raw state, is first characterized for size using an instrument adapted to measure equivalent spherical volume diameter, that is to say a Horiba LA900 Laser Scattering Particle Size Distribution Analyzer or equivalent instrument.
Sample is added to the dispersant until an acceptable level of laser light obscuration achieved at which point the particle size distribution is measured. […] The dispersant solution was filtered through a 0.2 micron microporous membrane filter to provide the necessary particle-free suspending dispersant.
Within five minutes of the preparation of the dispersion, triplicate particle size measurements were performed. Triplicate measurements are effected as a minimum check a) to produce more reliable measurements and b) to check the equivalent sampling of the suspended material has been reproducible i.e., the suspension has not settled.
From this, the mean equivalent spherical volume diameter value was derived (50% undersize value) together with the standard deviation of the distribution calculated as above.

[2] = Surface area by nitrogen adsorption (BET); type: physicochemical; settings: bulk lot
[3] = Dissolution of bulk lots handfilled into capsules, 0.1% aqueous polysorbate 80, USP Apparatus II; type: physicochemical; settings: hydrochloride; for % Dissolved: 60.0 mg in capsule; for % Dissolved at 10 Minutes: Table 8, 10 minutes; for % Dissolved at 30 Minutes: Table 8, 30 minutes
Method: Data was collected at 10, 20, 30 and 45 minutes to produce a dissolution profile.

[4] = Plasma AUC of unconjugated raloxifene in rats dosed in diet; type: in vivo, Fischer 344 rats; settings: 0.4% w/w in diet for seven days, hydrochloride
Method: In an attempt to evaluate these differences upon in vivo absorption, a study was conducted in Fischer 344 rats.

MCF-7 cells = MCF-7 cells in cell culture; cited from earlier work
[5] = test system: uterotrophic response to estrogen; settings: immature rats, versus tamoxifen; cited from earlier work
uterotrophic response = settings: OVX rats; cited from earlier work

| 90% less than ([1]; bulk lots of Table 6) [μm] | mean particle size ([1]; bulk lots of Table 6) [μm] | Surface Area ([2]; hydrochloride) [m^2/gm] | % Dissolved ([3]; 10 min) [%] | % Dissolved ([3]; 20 min) [%] | % Dissolved ([3]; 30 min) [%] | % Dissolved ([3]; 45 min) [%] | % Dissolved at 10 Minutes [3] [%] | % Dissolved at 30 Minutes [3] [%] | AUC [4] [ng·h/mL] | mean particle size ([1]; as restated) [microns] | Surface Area ([2]; listed as #2, hydrochloride) [m^2/gm] | Surface Area ([2]; listed as lot #2, hydrochloride) [m^2/gm] | 90% less than ([1]; bulk lots of Table 6, Ball Milled bulk lot) [μm] | 90% less than ([1]; bulk lots of Table 6, Slurry Milled bulk lot) [μm] | Structure (SMILES) | inhibition of estrogen-dependent proliferation (MCF-7 cells) | antagonism of the uterotrophic response to estrogen [5] | uterotrophic response (uterotrophic response) |
| --- | --- | --- | --- | --- | --- | --- | --- | --- | --- | --- | --- | --- | --- | --- | --- | --- | --- | --- |
| 6.8 | 3.9 | 6.09 | 51 | 68 | 78 | 88 | 50 | 78 | 10056 |  |  |  |  |  | O=C(c1ccc(OCCN2CCCCC2)cc1)c1c(-c2ccc(O)cc2)sc2cc(O)ccc12 [Lot #1, raloxifene hydrochloride] |  |  |  |
| 13.9 | 8.4 |  | 41 | 60 | 68 | 74 | 41 | 68 | 8037 | 8.4 | 2.28 | 2.28 |  |  | O=C(c1ccc(OCCN2CCCCC2)cc1)c1c(-c2ccc(O)cc2)sc2cc(O)ccc12 [Lot #2, raloxifene hydrochloride] |  |  |  |
|  |  | 2.10 | 31 | 45 | 54 | 64 | 31 | 55 | 5743 | 23.3 |  |  | 55.3 | 89 | O=C(c1ccc(OCCN2CCCCC2)cc1)c1c(-c2ccc(O)cc2)sc2cc(O)ccc12 [Lot #3, raloxifene hydrochloride] |  |  |  |
|  |  |  | 15 | 27 | 35 | 49 | 15 | 35 | 3329 |  |  |  |  |  | O=C(c1ccc(OCCN2CCCCC2)cc1)c1c(-c2ccc(O)cc2)sc2cc(O)ccc12 [Lot #4, raloxifene hydrochloride] |  |  |  |
|  |  |  |  |  |  |  |  |  |  |  |  |  |  |  | O=C(c1ccc(OCCN2CCCCC2)cc1)c1c(-c2ccc(O)cc2)sc2cc(O)ccc12 [Raloxifene, 6-hydroxy-2-(4-hydroxyphenyl)-3-[4-(2-piperidinoethoxy)benzoyl]benzo[b]-thiophene] | inhibits estrogen-dependent proliferation | more effective than tamoxifen | only minimal uterotrophic response that was not dose-dependent |
